Results as given in patent US11505553B2, “2-(Het)aryl-substituted fused heterocycle derivatives as pesticides” (Bayer Aktiengesellschaft, priority 2017, dated 2022).
Read-outs that look alike come from different tables or passages of the source.

Assays:
Type in all cases: in vivo
Phaedon cochleariae = Phaedon cochleariae spray test (PHAECO), contrastive examples; settings: 168 h, 100 g/ha, 7 dat, read-out: % efficacy
Procedure: Solvent: 78.0 parts by weight of acetone • • 1.5 parts by weight of dimethylformamide Emulsifier: alkylaryl polyglycol ether To produce an appropriate active ingredient formulation, 1 part by weight of active ingredient is dissolved with the stated parts by weight of solvent and made up with water containing an emulsifier concentration of 1000 ppm until the desired concentration is attained. For production of further test concentrations, the mixture is diluted with emulsifier-containing water. Discs of chinese cabbage leaves (Brassica pekinensis) are sprayed with an active ingredient formulation of the desired concentration and, after drying, populated with larvae of the mustard beetle (Phaedon cochleariae). After the desired time, the efficacy in % is determined. 100% means that all beetle larvae have been killed; 0% means that no beetle larvae have been killed.

Myzus persicae [1] = assay: Myzus persicae spray test (MYZUPE), contrastive examples; settings: 120 h, 5 dat, read-out: % efficacy
Procedure: (§1) Solvent: 78.0 parts by weight of acetone • • 1.5 parts by weight of dimethylformamide Emulsifier: alkylaryl polyglycol ether To produce a suitable active ingredient formulation, 1 part by weight of active ingredient is dissolved with the specified parts by weight of solvent and made up to the desired concentration with water containing an emulsifier concentration of 1000 ppm. To produce further test concentrations, the formulation is diluted with emulsifier-containing water. Discs of chinese cabbage leaves (Brassica pekinensis) infested by all stages of the green peach aphid (Myzus persicae) are sprayed with an active ingredient formulation of the desired concentration. After the desired time, the efficacy in % is determined. 100% means that all aphids have been killed; 0% means that no aphids have been killed.

Nilaparvata lugens [2] = assay: Nilaparvata lugens spray test (NILALU); settings: 96 h, 4 dat, read-out: % efficacy
Procedure: Solvent: 52.5 parts by weight of acetone • 7 parts by weight of dimethylformamide
Emulsifier: alkylaryl polyglycol ether
To produce an appropriate active ingredient formulation, 1 part by weight of active ingredient is dissolved with the stated parts by weight of solvent and made up with water containing an emulsifier concentration of 1000 ppm until the desired concentration is attained. For production of further test concentrations, the mixture is diluted with emulsifier-containing water. If addition of ammonium salts or/and penetrants is required, these are each added to the preparation solution in a concentration of 1000 ppm.
Rice plants (Oryza sativa) are sprayed with an active ingredient formulation of the desired concentration and then populated with larvae of the rice cicada (Nilaparvata lugens).
After the desired time, the efficacy in % is determined. 100% means that all rice cicadas have been killed; 0% means that no rice cicadas have been killed.

Myzus persicae [3] = assay: Myzus persicae spray test (MYZUPE S), bell pepper plants; settings: 144 h, 6 dat, read-out: % efficacy
Procedure: Solvent: 14 parts by weight of dimethylformamide Emulsifier: alkylaryl polyglycol ether To produce an appropriate active ingredient formulation, 1 part by weight of active ingredient is dissolved with the stated parts by weight of solvent and made up with water containing an emulsifier concentration of 1000 ppm until the desired concentration is attained. For production of further test concentrations, the mixture is diluted with emulsifier-containing water. If addition of ammonium salts or/and penetrants is required, these are each added to the preparation solution in a concentration of 1000 ppm. Bell pepper plants (Capsicum annuum) severely infested by the green peach aphid (Myzus persicae) are treated by spraying with the active ingredient formulation in the desired concentration. After the desired time, the kill in % is determined. 100% means that all animals have been killed; 0% means that no animals have been killed.

Nilaparvata lugens [4] = assay: Nilaparvata lugens test (NILALU S); settings: read-out: % efficacy
Procedure: Solvent: 14 parts by weight of dimethylformamide Emulsifier: 2 parts by weight of alkylaryl polyglycol ether To produce an appropriate active ingredient formulation, 1 part by weight of active ingredient is dissolved with the stated parts by weight of solvent and emulsifier and made up with water until the desired concentration is attained. For production of further test concentrations, the mixture is diluted with water. If addition of ammonium salts or/and penetrants (rapeseed oil methyl ester) is required, these are each pipetted into the finished preparation solution in a concentration of 1000 ppm after the dilution. Rice plants (Oryza sativa, var. Balilla) are treated by spraying with the active ingredient formulation in the desired concentration and then populated with L3 larvae of the brown planthopper (Nilaparvata lugens). After the desired time, the kill in % is determined. 100% means that all planthoppers have been killed and 0%, means that no planthoppers have been killed.

Myzus persicae [5] = assay: Myzus persicae oral test; settings: 120 h, after 5 days, read-out: efficacy; for pest or weed control at 4 ppm: application rate 4 ppm; for pest or weed control at 0.8 ppm: application rate 0.8 ppm
Procedure: Solvent: 100 parts by weight of acetone To produce a suitable active ingredient formulation, 1 part by weight of active ingredient is dissolved with the stated parts by weight of solvent and made up to the desired concentration with water. 50 μl of the active ingredient preparation are transferred into microtitre plates and made up to a final volume of 200 μl with 150 μl of IPL41 insect medium (33%+15% sugar). Subsequently, the plates are sealed with parafilm, which a mixed population of green peach aphids (Myzus persicae) within a second microtitre plate is able to puncture and imbibe the solution. After 5 days, the efficacy in % is determined. 100% means that all the aphids have been killed; 0% means that no aphids have been killed.

Myzus persicae [6] = assay: Myzus persicae drench test (MYZUPE D); settings: soil, 240 h, 10 dat, read-out: % efficacy
Procedure: Solvent: 7 parts by weight of dimethylformamide Emulsifier: 2 parts by weight of alkylaryl polyglycol ether To produce an appropriate active ingredient formulation, 1 part by weight of active ingredient is mixed with the stated amounts of solvent and emulsifier, and the concentrate is diluted with water to the desired concentration, it being necessary to take into account soil volume into which drenching is effected. It should be ensured that a concentration of 40 ppm of emulsifier in the soil is not exceeded. For production of further test concentrations, the mixture is diluted with water. Savoy cabbage plants (Brassica oleracea) in earth pots, infested by all stages of the green peach aphid (Myzus persicae), are drenched with an active ingredient formulation of the desired concentration. After the desired time, the efficacy in % is determined. 100% means that all aphids have been killed; 0% means that no aphids have been killed.

Ctenocephalides felis [7] = assay: Ctenocephalides felis oral test; settings: 48 h, application rate 100 ppm in citrated cattle blood, after 2 days, read-out: efficacy (kill)
Procedure: Solvent: dimethyl sulfoxide To produce a suitable active ingredient formulation, 10 mg of active ingredient are mixed with 0.5 ml of dimethyl sulfoxide. Dilution with citrated cattle blood gives the desired concentration. About 20 unfed adult cat fleas (Ctenocephalides felis) are placed into a chamber which is closed at the top and bottom with gauze. A metal cylinder whose bottom end is closed with parafilm is placed onto the chamber. The cylinder contains the blood/active ingredient formulation, which can be imbibed by the fleas through the parafilm membrane. After 2 days, the kill in % is determined. 100% means that all of the fleas have been killed; 0% means that none of the fleas have been killed.

Ctenocephalides felis [8] = assay: Ctenocephalides felis in vitro contact test with adult cat fleas; settings: application rate 5 μg/cm^2 (=500 g/ha), after 48 h, adult cat fleas dead or moribund, read-out: efficacy
Procedure: For the coating of the test tubes, 9 mg of active ingredient are first dissolved in 1 ml of acetone p.a. and then diluted to the desired concentration with acetone p.a. 250 μl of the solution are distributed homogeneously on the inner walls and the base of a 25 ml glass tube by turning and rocking on an orbital shaker (rocking rotation at 30 rpm for 2 h). With 900 ppm of active ingredient solution and internal surface area 44.7 cm^2, given homogeneous distribution, an area-based dose of 5 μg/cm^2 is achieved. After the solvent has evaporated off, the tubes are populated with 5-10 adult cat fleas (Ctenocephalides felis), sealed with a perforated plastic lid and incubated in a horizontal position at room temperature and ambient humidity. After 48 h, efficacy is determined. To this end, the tubes are stood upright and the fleas are knocked to the base of the tube. Fleas which remain motionless at the base or move in an uncoordinated manner are considered to be dead or moribund. […] 100% efficacy means that all the fleas were dead or moribund. 0% efficacy means that no fleas were harmed.

Myzus persicae [9] = assay: Myzus persicae spray test; settings: foliar, 120 h, Chinese cabbage leaf discs, after 5 days, read-out: efficacy; for pest or weed control at 100 g/ha: application rate 100 g/ha
Procedure: as §1, with “Solvent: 78 parts by” for “Solvent: 78.0 parts by”, “Discs of Chinese cabbage leaves” for “Discs of chinese cabbage leaves”, “concentration. After 5 days, the efficacy” for “concentration. After the desired time, the efficacy”, “that all the aphids have” for “that all aphids have”

SMILES: CCNC(=O)Nc1ccc(S(=O)(=O)CC)c(-c2nc3cc(C(F)(F)F)nnc3n2C)n1 [Prior art according to WO2017/025419, reference compound]
- Emax at 100 g/ha (Phaedon cochleariae): 50%
- Emax at 4 g/ha (Myzus persicae [1]): 0%
- Emax at 4 g/ha (Nilaparvata lugens [2]): 0%
- Emax at 0.8 ppm (Myzus persicae [3]): 0%

SMILES: CN(C)C(=O)Nc1ccc(S(C)(=O)=O)c(-c2nc3cc(C(F)(F)C(F)(F)F)nnc3n2C)n1 [Example I-11]
- Emax at 0.8 ppm (Nilaparvata lugens [4]; 336 h, 14 dat): 85%
- pest or weed control at 4 ppm (Myzus persicae [5]): 100%
- Emax at 0.8 ppm (Myzus persicae [6]): 95%

SMILES: CN(C)C(=O)Nc1ccc(S(C)(=O)=O)c(-c2nc3cc(C(F)(F)F)nnc3n2C)n1 [Example I-4]
- pest or weed control at 4 ppm (Myzus persicae [5]): 100%
- pest or weed control at 100 ppm (Ctenocephalides felis [7]): 100%

SMILES: CNC(=O)Nc1ccc(S(C)(=O)=O)c(-c2nc3cc(C(F)(F)C(F)(F)F)nnc3n2C)n1 [Example I-10]
- Emax at 0.8 ppm (Nilaparvata lugens [4]; 168 h, 7 dat): 95%
- Emax at 0.8 ppm (Nilaparvata lugens [4]; 336 h, 14 dat): 80%
- pest or weed control at 4 ppm (Myzus persicae [5]): 100%

SMILES: CNC(=O)Nc1ccc(S(C)(=O)=O)c(-c2nc3cc(C(F)(F)F)nnc3n2C)n1 [Example I-5]
- pest or weed control at 5 µg/cm2, 500 g/ha (Ctenocephalides felis [8]): 100%
- pest or weed control at 0.8 ppm (Myzus persicae [5]): 100%
- pest or weed control at 4 ppm (Myzus persicae [5]): 100%
- pest or weed control at 100 ppm (Ctenocephalides felis [7]): 100%
- pest or weed control at 100 g/ha (Myzus persicae [9]): 90%

SMILES: CCS(=O)(=O)c1ccc(N(C)C(=O)NC)nc1-c1nc2cc(C(F)(F)C(F)(F)F)nnc2n1C [Example I-8]
- pest or weed control at 4 ppm (Myzus persicae [5]): 100%
- Emax at 4 g/ha (Nilaparvata lugens [2]): 50%
- Emax at 0.8 ppm (Myzus persicae [6]): 99%

SMILES: CCS(=O)(=O)c1ccc(N(C)C(=O)N(C)C)nc1-c1nc2cc(C(F)(F)C(F)(F)F)nnc2n1C [Example I-13]
- Emax at 4 g/ha (Myzus persicae [1]): 90%
- pest or weed control at 4 ppm (Myzus persicae [5]): 100%
- Emax at 0.8 ppm (Myzus persicae [6]): 95%

SMILES: CCS(=O)(=O)c1ccc(NC(=O)NC)nc1-c1nc2cc(C(F)(F)C(F)(F)F)nnc2n1C [Example I-7]
- Emax at 4 g/ha (Myzus persicae [1]): 100%

SMILES: CCS(=O)(=O)c1ccc(NC(=O)N(C)C)nc1-c1nc2cc(C(F)(F)C(F)(F)F)nnc2n1C [Example I-9]
- pest or weed control at 4 ppm (Myzus persicae [5]): 100%
- Emax at 0.8 ppm (Myzus persicae [6]): 98%

SMILES: CCS(=O)(=O)c1ccc(N(C)C(=O)N(C)C)nc1-c1nc2cc(C(F)(F)F)nnc2n1C [Example I-12]
- Emax at 4 g/ha (Myzus persicae [1]): 90%
- pest or weed control at 0.8 ppm (Myzus persicae [5]): 100%
- pest or weed control at 4 ppm (Myzus persicae [5]): 100%
- Emax at 0.8 ppm (Myzus persicae [3]): 90%
- pest or weed control at 20 g/ha (Myzus persicae [9]; application rate 20 g/ha): 90%
- pest or weed control at 100 g/ha (Myzus persicae [9]): 100%
